Measured values: US20240298636A1, “ANTIMICROBIAL AGENTS AND FILMS MADE THEREFROM” (YISSUM RESEARCH DEVELOPMENT COMPANY OF THE HEBREW …, priority 2021, published 2024)

Assay: QCM-D analysis of peptide adsorption and Cu binding
Format: physicochemical
Details: for loaded mass/area of the peptide: 1.5 mg/mL in Tris buffer pH 8.5, after washing, Sauerbrey equation, 5th overtones
Procedure: Quartz Crystal Microbalance with Dissipation (QCM-D) Analysis: The peptides' adsorption and the metal-binding capabilities were studied using QCM-D (Q-sense, Biolin Scientific). The measurements were performed in a flow module E1 system with SiO2 sensors with a fundamental resonant frequency of 5 MHz (Qsense). The sensors were cleaned according to the supplier instructions. The experiments were performed under flow-through conditions using a digital peristaltic pump (IsmaTec Peristaltic Pump, IDEX). The peptide (1.5 mg/mL), control peptide (1.5 mg/mL), and CuCl2 (0.8 mg/mL) were dissolved in a filtered Tris buffer solution (pH=8.5, 10 mM). The solutions were injected circularly into the sensor crystal chamber at a rate of 0.1 mL/min. The peptide solution flowed for -4 h, the control peptide for −80 min, and the CuCl2 solution for -2 h. Between and after the coatings, the sensor was washed with the same Tris buffer solution. The adsorbed mass was calculated according to the Sauerbrey equation using the 5th overtones.

## NH2-DOPA-(Phe)2-(His)6-OH [peptide]
  loaded mass/area of the peptide: ~96 ng/cm^2
Cu(II) solution (CuCl2 0.8 mg/mL) after washing with the buffer
  loaded mass/area of Cu bound to the peptide layer: ~9 ng/cm^2
From loaded mass/area values
  ratio of Cu ions per each peptide molecule: ~2

## NH2-(Phe)2-(His)6-OH [reference compound]
  loaded mass/area of the peptide: ~12 ng/cm^2
